The target in one assay is T1, JAr Tumor Aromatase (Homo sapiens, UniProt P11511).
T1 construct: from 35 mg of tumor was the source for both aromatase; from tissue; host or cells: Tumor grown from subcutaneously injected human JAr choriocarcinoma cells in athymic nude mice; 800×g supernatant ('cytosol')
T1 sequence (P11511 1-503): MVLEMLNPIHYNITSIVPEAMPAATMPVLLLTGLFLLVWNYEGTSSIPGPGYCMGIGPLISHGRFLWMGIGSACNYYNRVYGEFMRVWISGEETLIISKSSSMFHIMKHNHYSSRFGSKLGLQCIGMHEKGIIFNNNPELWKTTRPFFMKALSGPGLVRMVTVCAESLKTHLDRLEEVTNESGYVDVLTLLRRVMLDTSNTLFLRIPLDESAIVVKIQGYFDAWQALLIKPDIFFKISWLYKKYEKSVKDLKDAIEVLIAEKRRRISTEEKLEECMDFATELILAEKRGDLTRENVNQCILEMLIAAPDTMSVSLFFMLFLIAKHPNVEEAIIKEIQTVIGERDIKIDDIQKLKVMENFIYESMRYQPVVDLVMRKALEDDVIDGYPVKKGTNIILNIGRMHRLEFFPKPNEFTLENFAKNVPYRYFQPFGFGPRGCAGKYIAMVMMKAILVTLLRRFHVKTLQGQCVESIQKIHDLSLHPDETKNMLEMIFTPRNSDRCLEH
The assay can be described thus: Time-dependent JAr tumor aromatase activity (in vitro inhibition; 3H2O release from 1-[3H]-androstenedione, cytosol of JAr tumor). Particulars: for inhibition at 5 µM: Conc. 5 μM; for inhibition at 5 µM / inhibition at 25 µM: read-out: Relative Percent Inhibition; for inhibition at 25 µM: Conc. 25 μM. Format: biochemical. The procedure:
The aromatase inhibitory action of the compounds of the present invention may be determined using a radioenzymatic assay. An aromatase enzyme preparation is employed from the microsomal fraction isolated from human placenta. Stereospecific elimination of 1β and 2β tritium labels from androgen substrates such as testosterone or androstenedione, and the subsequent appearance of tritated water, is utilized to measure the rate of enzyme reaction during in vitro incubations.
In evaluating the inhibition of aromatase activity, the compounds of the present invention were tested according to the folowing procedure adapted from Johnston et al., J Steroid Biochem., Vol. 20, No. 6A, 1221 (1984) and Johnston, Steroids, Vol. 50, No. 1-3, 105 (1987). Athymic nude mice were subcutaneously injected with 1.5×10^6 human choriocarcinoma trophoblast (JAr) cells, which develop tumor masses of about 1 g in 10 days. Tumor aromatase activity was determined in vitro by measuring the ^3 H2 O resulting from the stereospecific release of 1-β ^3 H from 1-[^3 H]-androstenedione. Cytosol (800×g) from 35 mg of tumor was the source for both aromatase and 3β-steroid dehydrogenase (SDH):isomerase activity. The test compounds were incubated for varying intervals (0-3 hrs) with aromatase prior to the addition of 34 pmol 1-[3H]-androstenedione to start a 30 min aromatase activity assay. When 10-(2-propynyl)-19-norandrost-5-ene-3β,17β-diol was tested in vitro by this procedure the following results were observed: […]

The test system of assay [1] is Aromatase Activity of JAr Tumor Xenografts in Nude Mice. The assay can be described thus: In vivo inhibition of aromatase activity of JAr tumor xenografts in nude mice. More on the design: species or system human (JAr tumor cells) in athymic nude mice. The conditions noted are these: vehicle PEG-200, 6 hr post-treatment. The method, then:
In evaluating the inhibition of aromatase activity, the compounds of the present invention were tested according to the folowing procedure adapted from Johnston et al., J Steroid Biochem., Vol. 20, No. 6A, 1221 (1984) and Johnston, Steroids, Vol. 50, No. 1-3, 105 (1987). Athymic nude mice were subcutaneously injected with 1.5×10^6 human choriocarcinoma trophoblast (JAr) cells, which develop tumor masses of about 1 g in 10 days. Tumor aromatase activity was determined in vitro by measuring the ^3 H2 O resulting from the stereospecific release of 1-β ^3 H from 1-[^3 H]-androstenedione. Cytosol (800×g) from 35 mg of tumor was the source for both aromatase and 3β-steroid dehydrogenase (SDH):isomerase activity. The test compounds were incubated for varying intervals (0-3 hrs) with aromatase prior to the addition of 34 pmol 1-[3H]-androstenedione to start a 30 min aromatase activity assay. When 10-(2-propynyl)-19-norandrost-5-ene-3β,17β-diol was tested in vitro by this procedure the following results were observed:
The compound 10-(2-propynyl)-19-norandrost-5-ene-3β,17β-diol was also evaluated in vivo by treating nude mice with trophoblast tumors. At 6 hr post-treatment intervals, tumor aromatase activity was determined in an in vitro assay as discussed above. The vehicle for oral dosing was PEG-200.

Like-named read-outs stand apart in the source and are kept apart here.

Turning to `C#CC[C@]12CC[C@H](O)CC1=CC[C@@H]1[C@@H]2CC[C@]2(C)[C@@H](O)CC[C@@H]12` [10-(2-propynyl)-19-norandrost-5-ene-3β,17β-diol], the inhibition (as a rule, the relative decrease from the control value, in per cent) at 5 µM at JAr Tumor Aromatase (preincubation time 0 hr) is 15.1%; at JAr Tumor Aromatase (preincubation time 1 hr), 0%; at JAr Tumor Aromatase (preincubation time 2 hr), 66.9%; at JAr Tumor Aromatase (preincubation time 3 hr), 71.9%. The inhibition at 25 µM on JAr Tumor Aromatase (preincubation time 0 hr) was found to be 33.4%; on JAr Tumor Aromatase (preincubation time 1 hr), 0%; on JAr Tumor Aromatase (preincubation time 2 hr), 86.5%; at JAr Tumor Aromatase (preincubation time 3 hr), 84.9%. Also, at JAr Tumor Aromatase (preincubation 0-3 hr, after enzymatic processing to a more reactive component), the “type of aromatase inhibition (biphase response)” value is reported as “time-dependent inhibition of aromatase”. The “Relative % Inhibition 6 hr Post-treatment” value in assay [1] (7 mg/kg oral) is 5.9 ± 3.0%; in assay [1] (10 mg/kg oral), 27.5 ± 1.5%; in assay [1] (30 mg/kg oral) it was 53.4 ± 7.8%.

The values are drawn from patent publication US4882322A, “3β,17β-hydroxy-substituted steroids and related steroidal compounds” (Merrell Dow Pharmaceuticals Inc., priority 1988, dated 1989).
